From patent publication US20180221874A1, “FLUIDIC DEVICES INC[…] TISSUE AND METHODS OF USE” (President and Fellows of Harvard College, priority 2015, published 2018)
“Also recorded” adds a separate entry of the source.

Test system: functional muscle tissue of human cardiac tissue
Experiment: Cardiac field potentials of functional muscle tissue measured with flexible electrode array
Assay type: cell-based
Conditions: escalating doses of isoproterenol; cardiac field potentials detected by microelectrode array; FIG. 27, 28
Text: A cell seeding well attached to a second portion of a fluidic device including a gelatin flexible substrate with a micropatterned top surface on a COC base was used to culture a functional muscle tissue of human cardiac tissue on the flexible substrate and to separately evaluate the functional muscle tissue prior to assembling the rest of the fluidic device. FIG. 26 is an image of the cell seeding well 400 attached to the second portion 192 of the fluidic device. The top of the cell seeding well 400 was wrapped in a gas permeable membrane. […] The cultured functional muscle tissue on the flexible substrate was exposed to escalating doses of isoproterenol, a beta-adrenergic agonist, and resulting cardiac field potentials were measured using the flexible electrode array. FIG. 27 is a graph of the measured cardiac field potentials 610, 620, […], 640, 650, 660, 670 as a function of time detected by the microelectrode array for various concentrations of isoproterenol. FIG. 28 is a graph of the measured QT interval shortening as a function of the dose of isoproterenol. […] Thus, the modular nature of the fluidic device enabled the flexible substrate on the second portion of the device to be easily seeded and cultured to form the functional muscle tissue, and enabled the functional muscle tissue to be evaluated prior to assembly of the full fluidic device.

SMILES: CC(C)NCC(O)c1ccc(O)c(O)c1 (stereo not shown) [isoproterenol]
- QT interval as a function of isoproterenol dose: shortening QT interval; also recorded: QT shortening with increased doses
